Data published in article PMC8348403 (Molecules, 2021).
Read-outs that look alike come from different tables or passages of the source.

How the values were obtained:
[1] = Pharmacokinetic study of tamatinib in rats after oral fostamatinib (UPLC-MS/MS of plasma); type: in vivo, Wistar male rats
Experimental: The analysis was performed on Waters® Acquity H-Class UPLC® tandem triple quadrupole mass spectrometer (TQD) (Waters, Milford, USA). The H-Class UPLC® system contained Acquity sample manager and Acquity quaternary solvent manager. TQD was equipped with electrospray ionization (ESI) probe. Samples were detected and quantified in multiple reaction monitoring (MRM) mode. […] Mobile phase composition was 10 mM ammonium acetate and acetonitrile (10:90). The mobile phase was adjusted at 0.25 mL/min. […] Samples were vortex-mixed for 30 s, and 1 mL of MTBE was added. All samples were vortex-mixed for 1 min, then centrifuged at 8 °C for 10 min at 4500 g. After centrifugation, the upper layer was transferred to 2 mL tubes and dried using a vacuum concentrator at 40 °C. The residue was reconstituted with 100 µL of the mobile phase and a volume of 5 µL was injected into the UPLC–MS/MS. Eight Wistar male rats weighing 210 ± 20 g (aged about 2 months) were provided by National Organization for Drug Control and Research, Cairo, Egypt. Rats were placed in cages in optimum conditions of humidity (40–60%) and temperature (22–26 °C) with regular 12 h day-night cycle. No diet was available for animals for 10 h prior and 1 h post drug administration. Water was available ad libitum. Rats were administered orally (using the gavage technique) 12.5 mg/kg (the middle dose used in the work of Clemens et al.) fostamatinib as a suspension in 1% sodium carboxymethylcellulose. Under light anesthesia, blood samples (0.3 mL) were collected from orbital sinus, in heparinized tube, at different time points; 0, 0.5, 1.0, 2.0, 3.0, 4.0, 6.0, 8.0, 12.0, 24.0, and 48.0 h after drug administration. Plasma samples were obtained by centrifugation at 3000 g for 3 min and kept frozen at −80 °C until analysis. Non-compartmental analysis with the trapezoidal rule was used for estimation of pharmacokinetic parameters. These parameters were calculated using WinNonlin software (Pharsight Co., Mountain View, CA, USA).

[2] = system: collagen-induced arthritis; design: method as in PMID 17537677; settings: rodents; cited from earlier work
[3] = type: in vitro ADME; settings: rat
Experimental: Short-term stability was evaluated at 22–25 °C for 6 h, which represented the processing time. Autosampler stability at ambient temperature for 24 h, long-term stability (−80 °C for 6 weeks), and three cycles of thaw and freeze (−80 and 25 °C) were evaluated. The actual concentrations of QCs samples (LQC, MQC, and HQC) under the stability test condition were compared against freshly prepared samples. Moreover, stock solution and working solution stability was evaluated at refrigerator temperature (4 °C) for 2 weeks.

[4] = system: experimental nephrotoxic nephritis; design: method as in PMID 19959716; settings: rats; cited from earlier work
lung tissue = system: lung tissue; design: method as in PMID 26148346; settings: treated mice; cited from earlier work
[5] = design: method as in PMID 23190017, PMID 20371637; settings: human intestinal microsomes; in vitro and in humans; cited from earlier work
[6] = design: method as in PMID 19107952; settings: administration during pregnancy; cited from earlier work
[7] = male, Wistar, rat, plasma, po, 12.5 mg/kg

COc1cc(Nc2ncc(F)c(Nc3ccc4c(n3)NC(=O)C(C)(C)O4)n2)cc(OC)c1OC [Tamatinib, tamatinib]
AUC(0-inf) [1, 7]: 6420 ± 1500 ng·h/mL
Cmax [1, 7]: 653 ± 70.4 ng/mL
MRT [1, 7]: 19.8 ± 2.9 h
Tmax [1, 7]: 3 h
half-life [1, 7]: 18.3 ± 0.9 h
AUC(0-t) ([1]; male, Wistar, rat, plasma, po, 12.5 mg/kg, read-out: AUC0–48): 5640 ± 1210 ng·h/mL
Clearance ([1]; tamatinib in plasma, oral fostamatinib 12.5 mg/kg, rats, mean ± SD): 0.030 ± 0.001 L/h
effect in collagen-induced arthritis [2]: progressive improvement in histopathology, clinical scores, and joint radiography
Accuracy ([3]; 0.3 ng/mL): 90.0%
Measured Concentration ([3]; 0.3 ng/mL): 0.27 ± 0.01 ng/mL
Accuracy ([3]; 75 ng/mL): 89.9%
Measured Concentration ([3]; 75 ng/mL): 67.40 ± 2.79 ng/mL
Accuracy ([3]; 750 ng/mL): 86.6%
Measured Concentration ([3]; 750 ng/mL): 649.20 ± 69.95 ng/mL
Accuracy ([3]; 6 weeks, 0.3 ng/mL): 86.7%
Measured Concentration ([3]; 6 weeks, 0.3 ng/mL): 0.26 ± 0.02 ng/mL
Accuracy ([3]; 6 weeks, 75 ng/mL): 88.1%
Measured Concentration ([3]; 6 weeks, 75 ng/mL): 66.10 ± 7.77 ng/mL
Accuracy ([3]; 6 weeks, 750 ng/mL): 85.4%
Measured Concentration ([3]; 6 weeks, 750 ng/mL): 640.60 ± 73.94 ng/mL
Accuracy ([3]; 6 h, 0.3 ng/mL): 86.7%
Measured Concentration ([3]; 6 h, 0.3 ng/mL): 0.26 ± 0.03 ng/mL
Accuracy ([3]; 6 h, 75 ng/mL): 86.2%
Measured Concentration ([3]; 6 h, 75 ng/mL): 64.65 ± 3.47 ng/mL
Accuracy ([3]; 6 h, 750 ng/mL): 85.3%
Measured Concentration ([3]; 6 h, 750 ng/mL): 640.10 ± 43.19 ng/mL
Accuracy ([3]; 24 h, 0.3 ng/mL): 86.7%
Measured Concentration ([3]; 24 h, 0.3 ng/mL): 0.26 ± 0.02 ng/mL
Accuracy ([3]; 24 h, 75 ng/mL): 85.3%
Measured Concentration ([3]; 24 h, 75 ng/mL): 64.00 ± 5.11 ng/mL
Accuracy ([3]; 24 h, 750 ng/mL): 87.2%
Measured Concentration ([3]; 24 h, 750 ng/mL): 654.34 ± 97.10 ng/mL
effect in experimental nephrotoxic nephritis [4]: reduced glomerular macrophage infiltration, tissue injury, and proteinuria

COc1cc(Nc2ncc(F)c(Nc3ccc4c(n3)N(COP(=O)(O)O)C(=O)C(C)(C)O4)n2)cc(OC)c1OC [fostamatinib, Fostamatinib sodium]
fibrosis and inflammation in lung tissue (lung tissue): less fibrosis and inflammation in lung tissue
transformation to tamatinib [5]: rapidly transformed to tamatinib
developmental toxicity [6]: caused urogenital and cardiovascular abnormalities
